One may read the IC50 as the concentration that gives 50% inhibition. Lower therefore signals inhibition by little substance.

The values below come from US9334256B2, “Agents and methods for treating ischemic and other diseases” (NoNO INC., priority 2011, dated 2016).

SMILES strings stand for the structures.

For one experiment, the system named is cancer cell lines. Description: Cell proliferation studies, cancer cell lines in general. It counts as cell-based. The conditions noted are these: summary statement. The method, then:
Cells were grown to 70% confluency, trypsinized, counted, and seeded in 96-well flat-bottom plates at a final concentration of 2.5×10^3-5.0×10^3 cells/well in growth media containing 5% FBS (Day 0). Other well sizes and cell densities were used successfully as well. Cells were allowed to incubate in growth media for 24 hours to allow for maximum adhesion. Treatment with the test agent began on Day 1 and continued for 72 hours either with or without retreatment. At the 72 hour time point, viable cell numbers are quantified by the CellTiter-Glo® cell viability assay as described above, or using standard MTT, SRB or BrDU assays. Experiments were repeated at least twice with the same concentrations to determine growth inhibitory activity. […] In an alternative format, this assay was used to screen potential TRPM7 inhibitory compounds at a fixed concentration, usually 5 or 10 uM. Alternatively, lower or higher concentrations were used. […] Thus, for the compounds in Table 1, all are potential anti-cancer agents. Some, like 399 and 509, are more general and may be effective against a wide range of cancers. Others, like 2785, are more specific and may be effective against a subset of cancers.
Data Collection—For the cell proliferation studies, data from each experiment was collected and expressed as % Cell Growth using the following calculation: % Cell Growth=(ftest/fvehicle)×100 Where ftest is the luminescent signal of the tested sample, and fvehicle is the luminescence of the vehicle in which the drug is dissolved (or appropriate measure for the other viability/proliferation measures). Dose response graphs and IC50 values were generated using standard software using the following variable slope equation: […]

Another experiment addresses T1, TRPM7 (Mus musculus, UniProt Q923J1).
T1 construct: expressed in transfected cells; host or cells: HEK-293 tSA (HEK-293T) cells, transient transfection with Lipofectamine 2000
The experiment can be described thus: PI uptake cell death assay in TRPM7-expressing HEK-293 cells (type of assay from Example 1). It counts as cell-based, murine. The conditions noted are these: Table X.

T1 sequence (Q923J1 whole entry): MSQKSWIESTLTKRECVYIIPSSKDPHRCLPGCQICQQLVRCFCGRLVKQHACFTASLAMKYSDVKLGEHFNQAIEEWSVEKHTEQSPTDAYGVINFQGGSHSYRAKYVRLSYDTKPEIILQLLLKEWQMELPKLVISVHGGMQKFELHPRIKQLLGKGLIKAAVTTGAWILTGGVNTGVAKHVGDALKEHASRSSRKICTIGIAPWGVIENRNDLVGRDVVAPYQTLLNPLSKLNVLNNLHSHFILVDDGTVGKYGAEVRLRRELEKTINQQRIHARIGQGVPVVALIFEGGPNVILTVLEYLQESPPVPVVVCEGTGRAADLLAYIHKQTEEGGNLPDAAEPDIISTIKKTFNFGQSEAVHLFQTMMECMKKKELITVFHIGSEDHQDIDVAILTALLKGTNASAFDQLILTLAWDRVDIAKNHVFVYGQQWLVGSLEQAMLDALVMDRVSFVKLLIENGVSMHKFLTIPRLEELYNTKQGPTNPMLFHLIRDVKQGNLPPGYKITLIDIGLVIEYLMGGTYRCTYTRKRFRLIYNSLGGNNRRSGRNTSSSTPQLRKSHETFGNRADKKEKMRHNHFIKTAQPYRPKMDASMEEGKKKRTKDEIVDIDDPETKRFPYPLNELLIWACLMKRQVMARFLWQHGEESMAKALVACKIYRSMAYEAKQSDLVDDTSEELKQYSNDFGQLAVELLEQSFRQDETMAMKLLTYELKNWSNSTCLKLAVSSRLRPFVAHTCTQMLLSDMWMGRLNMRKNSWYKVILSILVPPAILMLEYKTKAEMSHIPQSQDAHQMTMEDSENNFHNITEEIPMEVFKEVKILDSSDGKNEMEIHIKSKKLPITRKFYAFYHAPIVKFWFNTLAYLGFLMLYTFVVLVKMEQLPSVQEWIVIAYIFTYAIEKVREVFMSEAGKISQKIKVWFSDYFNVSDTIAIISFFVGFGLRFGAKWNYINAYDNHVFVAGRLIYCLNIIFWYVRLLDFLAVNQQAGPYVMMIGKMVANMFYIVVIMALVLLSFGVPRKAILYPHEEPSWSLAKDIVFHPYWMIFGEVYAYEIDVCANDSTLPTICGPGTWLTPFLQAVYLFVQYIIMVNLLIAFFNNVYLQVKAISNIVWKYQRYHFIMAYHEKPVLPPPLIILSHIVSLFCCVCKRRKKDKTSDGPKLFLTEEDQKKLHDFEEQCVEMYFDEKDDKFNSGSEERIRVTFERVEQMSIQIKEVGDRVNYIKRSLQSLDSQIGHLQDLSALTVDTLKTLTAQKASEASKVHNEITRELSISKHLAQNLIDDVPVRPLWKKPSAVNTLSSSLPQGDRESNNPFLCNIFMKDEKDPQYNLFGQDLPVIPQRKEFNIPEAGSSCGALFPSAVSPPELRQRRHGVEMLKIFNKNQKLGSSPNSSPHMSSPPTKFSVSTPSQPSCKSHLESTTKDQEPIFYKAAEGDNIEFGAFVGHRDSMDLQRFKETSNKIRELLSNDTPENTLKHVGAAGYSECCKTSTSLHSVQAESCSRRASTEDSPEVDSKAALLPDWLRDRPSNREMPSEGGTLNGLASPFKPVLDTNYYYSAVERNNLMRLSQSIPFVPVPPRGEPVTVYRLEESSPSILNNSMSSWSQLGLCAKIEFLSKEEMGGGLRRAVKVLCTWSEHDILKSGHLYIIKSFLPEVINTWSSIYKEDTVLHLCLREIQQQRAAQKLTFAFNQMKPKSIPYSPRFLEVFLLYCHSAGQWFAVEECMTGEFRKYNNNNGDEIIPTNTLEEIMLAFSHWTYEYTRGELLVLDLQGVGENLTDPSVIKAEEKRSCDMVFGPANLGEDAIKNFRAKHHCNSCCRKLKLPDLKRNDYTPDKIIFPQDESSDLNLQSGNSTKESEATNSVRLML

`Cc1c(Cc2ccc(Cl)c(Cl)c2)c(=O)oc2cc(O)ccc12` [Compound M21]: the “inhibition of proliferation of cancer cell lines” value with cancer cell lines is on record as “effective in inhibiting proliferation of a retinoblastoma cell line”. At TRPM7, this compound gave an IC50 of 4.97 µM.
